Test results from patent US12043599B2, “Herbicidal compounds” (SYNGENTA PARTICIPATIONS AG, priority 2018, dated 2024).

How the values were obtained:
Assay type in all cases: in vivo
Conditions in all cases: 250 g/h, evaluated after 13 days
Avena fatua (AVEFA) [1] = experiment: Pre-emergence herbicidal glasshouse test, percentage damage
Procedure: (§1) Seeds of a variety of test species are sown in standard soil in pots (Lolium perenne (LOLPE), Setaria faberi (SETFA), Alopecurus myosuroides (ALOMY), Echinochloa crus-galli (ECHCG), Avena fatua (AVEFA)). After cultivation for one day (pre-emergence) or after 8 days cultivation (post-emergence) under controlled conditions in a glasshouse (at 24/16° C., day/night; 14 hours light; 65% humidity), the plants are sprayed with an aqueous spray solution derived from the formulation of the technical active ingredient in acetone/water (50:50) solution containing 0.5% Tween 20 (polyoxyethelyene sorbitan monolaurate, CAS RN 9005-64-5). Compounds are applied at […]. The test plants are then grown in a glasshouse under controlled conditions in a glasshouse (at 24/16° C., day/night; 14 hours light; 65% humidity) and watered twice daily. After 13 days for pre and post-emergence, the test is evaluated for the percentage damage caused to the plant. The biological activities are shown in the following table on a five point scale (5=80-100%; 4=60-79%; 3=40-59%; 2=20-39%; 1=0-19%).

[2] = test system: Echinochloa crus-galli (ECHCG); experiment: as above
Procedure: as §1

Lolium perenne (LOLPE) [3] = experiment: as above
Procedure: as §1

Setaria faberi (SETFA) [4] = experiment: as above
Procedure: as §1

Setaria faberi (SETFA) [5] = experiment: Post-emergence herbicidal glasshouse test, percentage damage
Procedure: as §1
Using procedures outlines above, wheat and barley crop plants and a weed species (SETFA) are treated post-emergence with compound A11 of the present invention or comparator compound C1 (Compound A-38 from WO2014/096289) at the application rates indicated. The compounds were also applied to wheat in conjunction with the safener compound cloquintocet-mexyl (CQC) at 50 g/ha.

Avena fatua (AVEFA) [6] = experiment: as above
Procedure: as §1

[7] = test system: Echinochloa crus-galli (ECHCG); experiment: as above
Procedure: as §1

Lolium perenne (LOLPE) [8] = experiment: as above
Procedure: as §1

| SMILES | AVEFA PRE percentage damage (five point scale) (Avena fatua (AVEFA) [1]) | ECHCG PRE percentage damage (five point scale) [2] | LOLPE PRE percentage damage (five point scale) (Lolium perenne (LOLPE) [3]) | SETFA PRE percentage damage (five point scale) (Setaria faberi (SETFA) [4]) | SETFA POST percentage damage (five point scale) (Setaria faberi (SETFA) [5]) | AVEFA POST percentage damage (five point scale) (Avena fatua (AVEFA) [6]) | ECHCG POST percentage damage (five point scale) [7] | LOLPE POST percentage damage (five point scale) (Lolium perenne (LOLPE) [8]) |
| --- | --- | --- | --- | --- | --- | --- | --- | --- |
| CC#Cc1cc(C)c(C2C(=O)CC3(CCN(C(=O)c4ccc(OC)cn4)CC3)CC2=O)c(C)c1 [Compound A121] | 4 (4=60-79%) | 5 (5=80-100%) | 5 (5=80-100%) | 5 (5=80-100%) | 5 (5=80-100%) | 5 (5=80-100%) | 5 (5=80-100%) | 5 (5=80-100%) |
| CC#Cc1cc(C)c(C2=C(OC(=O)c3cccnc3)CC3(CCN(C(=O)c4cccnc4)CC3)CC2=O)c(C)c1 [Compound P36] | 4 (4=60-79%) | 5 (5=80-100%) | 5 (5=80-100%) | 5 (5=80-100%) | 5 (5=80-100%) | 5 (5=80-100%) | 5 (5=80-100%) | 5 (5=80-100%) |
| CC#Cc1cc(C)c(C2C(=O)CC3(CCN(C(=O)c4nccnc4C)CC3)CC2=O)c(C)c1 [Compound A138] | 5 (5=80-100%) | 5 (5=80-100%) | 5 (5=80-100%) | 5 (5=80-100%) | 5 (5=80-100%) | 5 (5=80-100%) | 5 (5=80-100%) | 5 (5=80-100%) |
| CC#Cc1cc(C)c(C2C(=O)CC3(CCN(C(=O)c4nccn4C)CC3)CC2=O)c(C)c1 [Compound A112] | 5 (5=80-100%) | 5 (5=80-100%) | 5 (5=80-100%) | 5 (5=80-100%) | 5 (5=80-100%) | 5 (5=80-100%) | 5 (5=80-100%) | 5 (5=80-100%) |
| CC#Cc1cc(C)c(C2C(=O)CC3(CCN(C(=O)C4CCCOC4)CC3)CC2=O)c(C)c1 (stereo not shown) [Compound A128] | 3 (3=40-59%) | 5 (5=80-100%) | 5 (5=80-100%) | 5 (5=80-100%) | 4 (4=60-79%) | 5 (5=80-100%) | 5 (5=80-100%) | 5 (5=80-100%) |
| CC#Cc1cc(C)c(C2C(=O)CC3(CCN(C(=O)NC(=O)C4CC4)CC3)CC2=O)c(C)c1 [Compound A141] | 4 (4=60-79%) | 5 (5=80-100%) | 5 (5=80-100%) | 5 (5=80-100%) | 5 (5=80-100%) | 5 (5=80-100%) | 5 (5=80-100%) | 5 (5=80-100%) |
| CC#Cc1cc(C)c(C2=C(OC(=O)OC)CC3(CCN(C(=O)NC(=O)c4ccccn4)CC3)CC2=O)c(C)c1 [Compound P46] | 2 (2=20-39%) | 5 (5=80-100%) | 5 (5=80-100%) | 5 (5=80-100%) | 5 (5=80-100%) | 5 (5=80-100%) | 5 (5=80-100%) | 5 (5=80-100%) |
| CC#Cc1cc(C)c(C2C(=O)CC3(CCN(C(=O)c4cn(C)cn4)CC3)CC2=O)c(C)c1 [Compound A117] | 2 (2=20-39%) | 5 (5=80-100%) | 4 (4=60-79%) | 5 (5=80-100%) | 5 (5=80-100%) | 5 (5=80-100%) | 5 (5=80-100%) | 5 (5=80-100%) |
